Assays:
[1] = molecular target: T1, human α2β1 sGC isozyme (Homo sapiens, UniProt P33402+Q02153); experiment: cGMP assay on human α2β1 sGC isozyme stably expressed in CHO-K1 cells; type: cell-based; conditions: 10 μM DETA-NONOate, 20 min, cGMP content, geometrical mean
T1 construct: host or cells: CHO-K1
T1 sequence (P33402 1-732): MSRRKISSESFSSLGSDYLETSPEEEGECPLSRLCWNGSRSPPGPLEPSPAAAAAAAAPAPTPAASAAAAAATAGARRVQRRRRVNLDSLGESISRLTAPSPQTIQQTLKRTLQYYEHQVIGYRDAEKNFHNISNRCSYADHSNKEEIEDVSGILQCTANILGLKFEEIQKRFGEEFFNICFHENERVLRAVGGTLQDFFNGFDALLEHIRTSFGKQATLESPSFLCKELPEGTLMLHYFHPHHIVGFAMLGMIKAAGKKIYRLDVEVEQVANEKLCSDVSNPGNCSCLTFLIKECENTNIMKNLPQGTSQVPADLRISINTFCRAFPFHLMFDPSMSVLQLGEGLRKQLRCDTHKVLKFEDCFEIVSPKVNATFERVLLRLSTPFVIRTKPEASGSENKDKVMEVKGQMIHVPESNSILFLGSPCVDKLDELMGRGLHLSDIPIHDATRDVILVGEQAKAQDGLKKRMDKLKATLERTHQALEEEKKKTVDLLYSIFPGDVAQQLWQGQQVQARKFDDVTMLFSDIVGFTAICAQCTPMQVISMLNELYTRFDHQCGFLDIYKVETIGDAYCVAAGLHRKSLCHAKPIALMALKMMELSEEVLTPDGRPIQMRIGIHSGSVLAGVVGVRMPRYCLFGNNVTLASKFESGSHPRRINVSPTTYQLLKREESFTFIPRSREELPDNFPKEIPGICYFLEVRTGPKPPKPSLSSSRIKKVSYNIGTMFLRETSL
T1 sequence (Q02153 1-619): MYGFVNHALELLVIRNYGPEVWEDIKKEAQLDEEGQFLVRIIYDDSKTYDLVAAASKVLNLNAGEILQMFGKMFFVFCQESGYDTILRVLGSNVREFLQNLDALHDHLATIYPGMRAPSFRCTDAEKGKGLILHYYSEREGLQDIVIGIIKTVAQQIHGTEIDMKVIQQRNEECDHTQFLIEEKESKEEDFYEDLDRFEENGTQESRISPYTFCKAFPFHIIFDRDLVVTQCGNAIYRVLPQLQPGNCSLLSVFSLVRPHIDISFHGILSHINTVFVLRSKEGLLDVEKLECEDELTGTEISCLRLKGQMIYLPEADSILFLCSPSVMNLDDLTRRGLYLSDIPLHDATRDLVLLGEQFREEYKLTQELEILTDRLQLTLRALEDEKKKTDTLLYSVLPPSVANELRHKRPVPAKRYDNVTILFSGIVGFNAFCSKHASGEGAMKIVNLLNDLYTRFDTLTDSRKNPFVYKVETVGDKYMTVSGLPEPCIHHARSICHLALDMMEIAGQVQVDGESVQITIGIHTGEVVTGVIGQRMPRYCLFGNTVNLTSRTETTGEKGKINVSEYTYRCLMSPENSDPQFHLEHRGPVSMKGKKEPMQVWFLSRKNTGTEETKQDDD
Description: sGC stimulators were dissolved in DMSO as a 10 mM solution and stored at −20° C. To achieve desired test concentrations, stock concentrations were serially diluted into DMSO and then diluted to the appropriate concentration in assay buffer.
CHO-K1 cells stably transfected with human α2β1 sGC isozyme (generated by GenScript for Ironwood) were cultured in F-12K medium (ATCC catalog #30-2004) with 10% fetal calf serum, 4 μg/mL puromycin (Gibco catalog #A11138-03) and 0.4 mg/mL of geneticin (Gibco catalog #10131-027) in a 95% humidified atmosphere containing 5% CO2 in air at 37° C. For GC activity assays, cells were seeded in 384 well poly-D-lysine coated flat bottom plates (Fisher Scientific #08-774-311) in either 50 μL or 70 μL medium at a density of either 3×10^4 cells/well or 15×10^3, respectively. Cells were incubated for 24 hours at 37° C. in a humidified chamber supplemented with 5% CO2. […]
Following incubation with compound, assay buffer was removed and 50 μL of ice-cold 10% acetic acid+150 ng/mL internal standard (+3 cGMP) was added to each well. […] Following centrifugation at 4° C. for 5 min at 1000×g to pellet cell debris, the supernatant was transferred to a clean plate and the samples analyzed for cGMP content.
Data were analyzed with a 4-parameter fit (log(agonist) vs. response—variable slope) using GraphPad Prism Software v.8. […]

[2] = tested on: normotensive rats; experiment: Blood pressure effects in normotensive rats following acute oral dose; type: in vivo, rat; conditions: Milli-Q water
Description: Male, normotensive Sprague Dawley rats were purchased from Charles River Laboratories. These rats have indwelling femoral artery catheters installed. Animals were harnessed to a tether system and attached to pressure transducers to monitor cardiovascular (CV) parameters, specifically mean arterial pressure (MAP) and heart rate (HR). Animals were acclimated to the system overnight and baseline CV parameters collected. The conscious, freely moving rats were then administered a single oral dose of the Compound I-14 (doses generated from the sodium salt of Compound 14) in Milli-Q water at 1, 3, 10 and 30 mg/kg. A blood sample was collected from each animal through the catheter line at pre-dose and 2 hours post-dose for compound concentration quantification. Hemodynamic measures were recorded for ten hours post-dose. […]
ADInstruments LabChart (v8) was used to monitor and export hemodynamic data. Blood pressure and heart rate were continuously monitored, and data were collected at 1000 data points per second then averaged into 10-minute bins for analysis. Change from baseline MAP (ΔBMAP) and HR (ΔBHR) were calculated using the pre-dose baseline averaged over the 1-hr period prior to dosing using Microsoft Excel for Microsoft 365. […]
Statistical analyses were performed in Graphpad Prism (v8). […] Vehicle-adjusted HR (ΔVHR) was calculated in a similar manner to ΔVMAP. […]

`Cc1cc(F)c(Cc2nc(-c3ncc(F)c(O)n3)cn3ccnc23)cc1F` [Compound I-14, 5-fluoro-2-(8-(2,5-difluoro-4-methylbenzyl)imidazo[1,2-a]pyrazin-6-yl)pyrimidin-4-ol] was tested, and the EC50 [1] was at most 0.1 µM, the “effect on MAP from baseline and as adjusted from vehicle” value ([2]; 3, 10, and 30 mg/kg single oral dose) was “lowered MAP” and the “change from baseline MAP (ΔBMAP) compared with vehicle-treated rats” value ([2]; single oral dose 1, 3, 10 and 30 mg/kg, 2-way ANOVA significant) was “greater decrease in MAP”.

— patent US20240208979A1, “sGC STIMULATORS” (Tisento Therapeutics Inc., priority 2021, published 2024)
